Each block holds one molecule with its values, some of them ahead of it. No end group written: not given here. carboxyfluorescein = carboxyfluorescein N-terminal label
Assays:
[1] = Biomarker dosing in rats following IFN-γ treatment, plasma level; type: in vivo, rat
[2] = target: recombinant soluble HLA-DQ2 heterodimer (thrombin-cleaved DQ2-αI-gliadin peptide complex) (human) (UniProt P01909); test: SEC

IFN-γ-treated rats with biomarker detected in plasma ([1]; 20 mg oral gavage after 2 days i.v. IFN-γ, plasma 60 min, 3Q LC-MS/MS): one of four
plasma level in IFN-γ-treated animal relative to control animal ([1]; rats, oral biomarker, single animals with detectable plasma biomarker): ~ 10 fold
Molecule: LQLQPF (PQPHLPY)3PQPQPF [[^13C3]-HHH-33-mer]

percent of peptide bound [2]: > 80%
Molecule: carboxyfluorescein-LQLQPFPQPELPYPQPELPYPQPELPYPQPQPF [fluorescein-conjugated EEE-33-mer (synthetically deamidated 33-mer from α2-gliadin)]

fold by which EEE-33-mer binds more than this peptide [2]: 15.6 fold
Molecule: carboxyfluorescein-LQLQPFPQPNLPYPQPNLPYPQPNLPYPQPQPF [fluorescein-conjugated NNN-33-mer biomarker]

— PMC3721637 (Chemistry & biology, 2009)
